Measurements published in US6800637B2, “Antidepressant indolealkyl derivatives of heterocycle-fused benzodioxan methylamines” (Wyeth, priority 2002, dated 2004).
Read-outs that look alike come from different tables or passages of the source.

What was measured:
serotonin transporter = molecular target: T1, serotonin transporter (Rattus norvegicus, UniProt P31652); assay: Displacement of 3H-paroxetine from male rat frontal cortical membranes (serotonin transporter affinity); format: binding; settings: read-out: 5-HT Transporter Affinity KI
T1 construct: displace ^3H-paroxetine from male rat frontal cortical membranes; from tissue; host or cells: male rat frontal cortex membranes
T1 sequence (P31652 whole entry): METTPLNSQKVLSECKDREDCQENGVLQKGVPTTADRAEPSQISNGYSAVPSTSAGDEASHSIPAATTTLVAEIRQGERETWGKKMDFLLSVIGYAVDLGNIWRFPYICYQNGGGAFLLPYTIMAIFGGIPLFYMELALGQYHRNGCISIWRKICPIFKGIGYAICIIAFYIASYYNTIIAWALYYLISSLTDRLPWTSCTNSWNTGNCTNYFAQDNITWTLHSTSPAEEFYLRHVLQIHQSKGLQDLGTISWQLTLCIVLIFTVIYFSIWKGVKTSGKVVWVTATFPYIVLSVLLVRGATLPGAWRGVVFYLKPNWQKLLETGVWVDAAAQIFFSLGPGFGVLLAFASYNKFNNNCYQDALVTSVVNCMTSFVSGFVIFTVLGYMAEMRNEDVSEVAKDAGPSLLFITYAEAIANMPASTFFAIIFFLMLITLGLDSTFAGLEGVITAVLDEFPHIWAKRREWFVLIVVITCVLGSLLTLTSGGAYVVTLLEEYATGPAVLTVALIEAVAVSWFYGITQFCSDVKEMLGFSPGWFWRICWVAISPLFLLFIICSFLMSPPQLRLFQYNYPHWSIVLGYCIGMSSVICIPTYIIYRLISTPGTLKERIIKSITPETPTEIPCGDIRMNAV

human 5-HT1A receptors = molecular target: T2, human 5-HT1A receptors (Homo sapiens, UniProt P08908); assay: Displacement of [3H] 8-OHDPAT from 5-HT1A receptor, CHO cells stably transfected with human 5-HT1A receptors; format: binding; settings: CHO cells with human 5-HT1A receptors, read-out: 5-HT1A Receptor Affinity KI
T2 construct: expressed in transfected cells; host or cells: CHO cells
T2 sequence (P08908 1-422): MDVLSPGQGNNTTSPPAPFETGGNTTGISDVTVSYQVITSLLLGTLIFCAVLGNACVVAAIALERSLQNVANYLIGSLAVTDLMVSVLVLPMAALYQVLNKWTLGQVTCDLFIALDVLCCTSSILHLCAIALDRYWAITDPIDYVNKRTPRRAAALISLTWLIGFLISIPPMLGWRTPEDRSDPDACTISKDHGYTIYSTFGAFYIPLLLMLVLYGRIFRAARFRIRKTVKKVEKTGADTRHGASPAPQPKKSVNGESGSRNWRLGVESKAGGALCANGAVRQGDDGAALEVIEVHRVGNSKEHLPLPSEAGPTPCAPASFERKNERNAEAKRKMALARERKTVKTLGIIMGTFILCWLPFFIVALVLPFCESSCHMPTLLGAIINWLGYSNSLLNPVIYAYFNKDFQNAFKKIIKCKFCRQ
Source text: High affinity for the serotonin 5-HT1A receptor was established by testing the claimed compound's ability to displace [^3H] 8-OHDPAT (dipropylaminotetralin) from the 5-HT1A serotonin receptor following a modification of the procedure of Hall et al., J. Neurochem. 44, 1685 (1985) which utilizes CHO cells stably transfected with human 5-HT1A receptors.

[1] = molecular target: T3, cloned human 5HT1A receptors (Homo sapiens, UniProt P08908); assay: 35S-GTPγS binding assay, membranes containing cloned human 5HT1A receptors; format: biochemical; settings: for IC50: antagonist potency, reversal of the effects of the standard agonist 8-OHDPAT, read-out: 5-HT1A Function IC50
T3 construct: expressed in transfected cells
T3 sequence (P08908 1-422): T2 sequence (P08908 1-422)
Description: Antagonist activity at 5-HT1A receptors was established by using a ^35S-GTPγS binding assay similar to that used by Lazareno and Birdsall (Br. J. Pharmacol. 109: 1120, 1993), in which the test compound's ability to affect the binding of ^35S-GTPγS to membranes containing cloned human 5HT1A receptors was determined. Agonists produce an increase in binding whereas antagonists produce no increase but rather reverse the effects of the standard agonist 8-OHDPAT. The test compound's maximum inhibitory effect is represented as the Imax, while its potency is defined by the IC50.

[2] = maximum inhibitory effect, read-out: 5-HT1A Function (Imax)

SMILES	Ki (serotonin transporter) [nM]	Ki (human 5-HT1A receptors) [nM]	IC50 [1] [nM]	5-HT1A Function (Imax) ([1]; maximum inhibitory effect) [%]	Emax [1, 2] [%]	EC50 ([1]; given as EC50, read-out: 5-HT1A Function EC50) [nM]	Emax ([1]; given as Emax, read-out: 5-HT1A Function Emax) [%]
Cc1ccc2c3c(ccc2n1)OCC(CNC(C)CCc1c[nH]c2ccc(F)cc12)O3 (single isomer, unassigned; isomer a) [Example 11 Isomer A]	1.62	1.68	27.8	78.3	–	–	–
Cc1ccc2c3c(ccc2n1)OCC(CNC(C)CCc1c[nH]c2ccc(F)cc12)O3 (single isomer, unassigned; isomer b) [Example 11 Isomer B]	0.43	4.65	–	–	–	–	–
COc1ccc2[nH]cc(CCNCC3COc4ccc5nc(C)ccc5c4O3)c2c1 (stereo not drawn) [Example 1]	31	2.03	88.6	–	80.3	–	–
Cc1ccc2c3c(ccc2n1)OC[C@H](CNCCc1c[nH]c2ccc(Cl)cc12)O3 [Example 2]	34	19.9	49.4	–	37	–	–
Cc1ccc2c3c(ccc2n1)OC[C@H](CNCCCc1c[nH]c2ccc(F)cc12)O3 [Example 3, N-[3-(5-Fluoro-1H-Indolyl-3-yl)propyl]-N-(8-methyl-2,3-dihydro-[1,4]dioxino[2,3-f]quinolin-2-ylmethyl)amine]	0.41	0.27	10.6	–	98.7	–	–
Cc1ccc2c3c(ccc2n1)OCC(CNCCc1c[nH]c2ccc(F)cc12)O3 (stereo not drawn) [Example 4, N-[2-(5-Fluoro-1H-indol-3-yl)ethyl]-N-(8-methyl-2,3-dihydro-[1,4]dioxino[2,3-f]quinolin-2-ylmethyl)amine]	47	4.19	909	–	58	–	–
CCc1ccc2c3c(ccc2n1)OCC(CNCCCc1c[nH]c2ccc(F)cc12)O3 (stereo not drawn) [Example 5, N-[3-(5-Fluoro-1H-Indol-3-yl)propyl]-N-(8-ethyl-2,3-dihydro-[1,4]dioxino[2,3-f]quinolin-2-ylmethyl)amine]	0.96	0.64	92.5	–	76.8	–	–
Cc1ccc2c3c(ccc2n1)OCC(CNCCCc1c[nH]c2ccccc12)O3 (stereo not drawn) [Example 6, N-[3-(1H-Indol-3-yl)propyl]-N-(8-methyl-2,3-dihydro-[1,4]dioxino[2,3-f]quinolin-2-ylmethyl)amine]	3.57	0.39	31.3	–	86.6	–	–
Cc1ccc2c3c(ccc2n1)OCC(CN(C)CCCc1c[nH]c2ccc(F)cc12)O3 (stereo not drawn) [Example 7, N-[3-(5-Fluoro-1H-indol-3-yl)propyl]-N-methyl-N-(8-methyl-2,3-dihydro-[1,4]dioxino[2,3-f]quinolin-2-ylmethyl)amine]	0.38	3.43	73.9	–	100	–	–
Cc1ccc2c3c(ccc2n1)OCC(CNCCCc1c[nH]c2c(F)cccc12)O3 (stereo not drawn) [Example 8, N-[3-(7-Fluoro-1H-indol-3-yl)propyl]-N-(8-methyl-2,3-dihydro-[1,4]dioxino[2,3-f]quinolin-2-ylmethyl)amine]	2.07	0.22	25.8	–	94.1	–	–
Cc1ccc2c3c(ccc2n1)OCC(CNCCCCc1c[nH]c2ccccc12)O3 (stereo not drawn) [Example 9, N-[4-(1H-indol-3-yl)butyl]-N-(8-methyl-2,3-dihydro-[1,4]dioxino[2,3-f]quinolin-2-ylmethyl)amine]	4.7	0.46	23.7	–	95.2	–	–
Cc1ccc2c3c(ccc2n1)OCC(CNCCCCc1c[nH]c2ccc(F)cc12)O3 (stereo not drawn) [Example 10, N-[4-(5-Fluoro-1H-indol-3-yl)butyl]-N-(8-methyl-2,3-dihydro-[1,4]dioxino[2,3-f]quinolin-2-ylmethyl)amine]	1.29	1.78	71.1	–	61.5	–	–
Cc1ccc2c3c(ccc2n1)OCC(CNCCCc1cn(C)c2ccc(F)cc12)O3 (stereo not drawn) [Example 12, N-[3-(5-Fluoro-1-methyl-1H-indol-3-yl)propyl]-N-(8-methyl-2,3-dihydro-[1,4]dioxino[2,3-f]quinolin-2-ylmethyl)amine]	13	1.55	138	–	81.6	–	–
Cc1ccc2c3c(ccc2n1)OCC(CNCCCc1c[nH]c2c(F)cc(F)cc12)O3 (stereo not drawn) [Example 13, N-[3-(5,7-Difluoro-1H-indol-3-yl)propyl]-N-(8-methyl-2,3-dihydro-[1,4]dioxino[2,3-f]quinolin-2-ylmethyl)amine]	1.05	0.32	64.6	–	95	–	–
Fc1ccc2[nH]cc(CCCNC[C@H]3COc4ccc5ncccc5c4O3)c2c1 [Example 14, N-(2,3-Dihydro-[1,4]dioxino[2,3-f]quinolin-2-ylmthyl)-N-[3-(5-fluoro-1H-indol-3-yl)propyl]amine]	1	1.03	507	–	100	–	–
CN(CCCc1c[nH]c2ccc(F)cc12)CC1COc2ccc3ncccc3c2O1 (stereo not drawn) [Example 15, N-(2,3-Dihydro-[1,4]dioxino[2,3-f]quinolin-2-ylmethyl)-N-[3-(5-fluoro-1H-indol-3-yl)propyl]-N-methylamine]	1.6	5.16	412	–	100	–	–
Cc1ccc2c3c(ccc2n1)OCC(CN(C)CCCc1c[nH]c2c(F)cc(F)cc12)O3 (stereo not drawn) [Example 16, N-[3-(5,7-Difluoro-1H-indol-3-yl)propyl]-N-methyl-N-(8-methyl-2,3-dihydro-[1,4]dioxino[2,3-f]quinolin-2-ylmethyl)amine]	1.8	2.51	125	–	100	–	–
Cc1ccc2c3c(ccc2n1)OC[C@H](CNCCc1coc2ccccc12)O3 [Example 17]	46	0.63	52	–	78	–	–
Cc1ccc2c3c(ccc2n1)OC[C@H](CNCCCc1coc2ccccc12)O3 [Example 18]	6.6	0.35	10.4	–	59.3	–	–
COc1cccc2c(CCCNCC3COc4ccc5nc(C)ccc5c4O3)coc12 (stereo not drawn) [Example 19, N-[3-(7-Methoxy-1-benzofuran-3-yl)propyl]-N-(8-methyl-2,3-dihydro-[1,4]dioxino[2,3-f]quinolin-2-ylmethyl)amine]	14.6	0.2	50.1	–	95.4	–	–
Cc1ccc2c3c(ccc2n1)OC[C@H](CNCCCc1csc2ccccc12)O3 [Example 20]	2.82	0.38	188	–	100	–	–
Cc1ccc2c3c(ccc2n1)OCC(CNCCc1csc2ccccc12)O3 (stereo not drawn) [Example 21, N-[2-(1-Benzothien-3-yl)ethyl]-N-(8-methyl-2,3-dihydro-[1,4]dioxino[2,3-f]quinolin-2-ylmethyl)amine]	62	0.6	25.9	–	37.5	–	–
Cc1ccc2c3c(ccc2n1)OC[C@H](CN(C)CCCc1csc2ccccc12)O3 [Example 22, N-[3-(1-Benzothien-3-yl)propyl]-N-methyl-N-(8-mthyl-2,3-dihydro-[1,4]dioxino[2,3-f]quinolin-2-ylmthyl)amin]	4.3	7.12	878	–	85.5	–	–
Cc1ccc2c3c(ccc2n1)OCC(CNCCCCc1coc2ccccc12)O3 (stereo not drawn) [Example 28, N-[4-(1-Benzofuran-3-yl)butyl]-N-(8-methyl-2,3-dihydro-[1,4]dioxino[2,3-f]quinolin-2-ylmethyl)amine]	5.5	0.28	–	–	–	–	–
Cc1ccc2c3c(ccc2n1)OCC(CN(C)CCCCc1c[nH]c2ccc(C#N)cc12)O3 (stereo not drawn) [Example 41, 3-{4-[Methyl-(8-methyl-2,3-dihydro-[1,4]dioxino[2,3-f]quinolin-2-ylmethyl)-amino]-butyl}-1H-indole-5-carbonitrile]	0.24	21	–	–	–	–	–
Cc1ccc2c3c(ccc2n1)OCC(CN(C)CCCc1cn(C)c2ccc(F)cc12)O3 (stereo not drawn) [Example 42, [3-(5-Fluoro-1-methyl-1H-indol-3-yl)-propyl]-methyl-(8-methyl-2,3-dihydro-[1,4]dioxino[2,3-f]quinolin-2-ylmethyl)-amine]	2.75	36	–	–	–	–	–
CCN(CCCCc1coc2ccccc12)C[C@H]1COc2ccc3nc(C)ccc3c2O1 [Example 52, N-[4-(1-Benzofuran-3-yl)butyl]-N-ethyl-N-{[(2S)-8-methyl-2,3-dihydro[1,4]dioxino[2,3-f]quinolin-2-yl]methyl}amine]	–	2.08	–	–	–	526	97
